Test results as given in patent US20250352512A2, “C4-S[…] DERIVATIVES AND METHODS OF USING” (priority 2022, published 2025).
Like-named read-outs stand apart in the source and are kept apart here.

Key:
[1] = molecular target: HTR2A (Homo sapiens, UniProt P28223); assay: cell-based
[2] = molecular target: T1, ADRA2A (Homo sapiens, UniProt P08913); assay: cell-based
T1 sequence (P08913 1-465): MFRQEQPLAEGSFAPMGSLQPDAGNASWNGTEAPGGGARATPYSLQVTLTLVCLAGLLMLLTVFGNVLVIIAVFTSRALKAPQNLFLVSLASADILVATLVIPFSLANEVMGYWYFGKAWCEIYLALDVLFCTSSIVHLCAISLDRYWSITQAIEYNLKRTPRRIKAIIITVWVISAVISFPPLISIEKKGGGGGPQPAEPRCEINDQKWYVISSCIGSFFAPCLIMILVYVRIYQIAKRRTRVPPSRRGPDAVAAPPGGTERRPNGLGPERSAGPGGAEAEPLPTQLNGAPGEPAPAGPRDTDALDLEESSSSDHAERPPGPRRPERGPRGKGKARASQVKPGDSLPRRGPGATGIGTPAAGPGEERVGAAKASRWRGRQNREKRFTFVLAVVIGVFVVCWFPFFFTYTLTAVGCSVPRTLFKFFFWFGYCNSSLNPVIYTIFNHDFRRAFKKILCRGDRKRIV

[3] = molecular target: DRD2S (Homo sapiens, UniProt P14416); assay: cell-based
[4] = molecular target: DAT (Homo sapiens, UniProt Q01959); assay: cell-based
Sequence of DAT (Q01959 whole entry): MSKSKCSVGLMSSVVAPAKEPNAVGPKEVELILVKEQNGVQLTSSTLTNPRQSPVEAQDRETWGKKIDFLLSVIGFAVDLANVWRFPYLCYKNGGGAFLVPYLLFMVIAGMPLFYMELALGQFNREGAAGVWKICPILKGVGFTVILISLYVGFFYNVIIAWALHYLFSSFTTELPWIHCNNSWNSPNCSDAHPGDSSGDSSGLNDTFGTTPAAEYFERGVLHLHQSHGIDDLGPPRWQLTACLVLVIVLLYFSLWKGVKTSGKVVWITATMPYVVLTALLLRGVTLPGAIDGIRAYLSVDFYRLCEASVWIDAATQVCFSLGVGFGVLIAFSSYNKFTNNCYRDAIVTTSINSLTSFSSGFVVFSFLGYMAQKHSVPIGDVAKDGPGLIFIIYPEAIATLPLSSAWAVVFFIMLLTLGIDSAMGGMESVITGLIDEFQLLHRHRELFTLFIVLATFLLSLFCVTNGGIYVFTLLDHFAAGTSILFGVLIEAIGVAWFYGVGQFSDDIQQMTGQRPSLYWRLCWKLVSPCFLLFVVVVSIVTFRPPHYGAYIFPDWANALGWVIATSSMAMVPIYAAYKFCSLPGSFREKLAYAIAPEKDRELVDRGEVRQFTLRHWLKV

[5] = molecular target: AVPR1A (Homo sapiens, UniProt P37288); assay: cell-based
Sequence of AVPR1A (P37288 whole entry): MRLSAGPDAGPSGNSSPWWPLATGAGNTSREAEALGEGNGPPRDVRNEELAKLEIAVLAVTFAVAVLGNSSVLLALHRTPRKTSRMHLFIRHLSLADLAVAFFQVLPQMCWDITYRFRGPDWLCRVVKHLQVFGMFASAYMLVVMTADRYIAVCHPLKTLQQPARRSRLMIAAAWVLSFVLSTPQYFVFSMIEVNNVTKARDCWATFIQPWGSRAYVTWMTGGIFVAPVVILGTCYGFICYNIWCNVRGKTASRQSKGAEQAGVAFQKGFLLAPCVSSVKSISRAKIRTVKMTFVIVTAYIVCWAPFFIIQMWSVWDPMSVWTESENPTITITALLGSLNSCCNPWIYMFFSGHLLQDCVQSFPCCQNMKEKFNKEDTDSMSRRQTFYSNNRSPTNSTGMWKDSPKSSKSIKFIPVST

[6] = molecular target: CNR1 (Homo sapiens, UniProt P21554); assay: cell-based
Sequence of CNR1 (P21554 whole entry): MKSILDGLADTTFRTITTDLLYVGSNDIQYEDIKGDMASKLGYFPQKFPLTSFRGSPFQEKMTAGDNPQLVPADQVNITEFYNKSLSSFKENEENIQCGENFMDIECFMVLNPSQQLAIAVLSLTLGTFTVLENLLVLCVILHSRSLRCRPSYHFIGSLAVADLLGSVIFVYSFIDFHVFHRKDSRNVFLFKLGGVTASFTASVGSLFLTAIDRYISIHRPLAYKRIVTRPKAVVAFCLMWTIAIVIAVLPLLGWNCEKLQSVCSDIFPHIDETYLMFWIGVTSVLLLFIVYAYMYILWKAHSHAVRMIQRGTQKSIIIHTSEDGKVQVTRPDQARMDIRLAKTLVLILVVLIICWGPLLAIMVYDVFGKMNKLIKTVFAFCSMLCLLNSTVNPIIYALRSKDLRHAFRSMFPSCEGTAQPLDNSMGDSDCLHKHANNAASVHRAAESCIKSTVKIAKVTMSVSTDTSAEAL

[7] = molecular target: OPRD1 (Homo sapiens, UniProt P41143); assay: cell-based
[8] = molecular target: T2, 5-HT2A receptor (5-HT2AR) (Mus musculus, UniProt P35363); assay: Drug-induced Head Twitch Response (HTR) in mice; type: in vivo; conditions: C57BL/6-Elite mice, i.p. 1 mg/kg, 15-to-30-minute window following administration
T2 construct: tissue Charles River; host or cells: living C57BL/6-Elite mice (neuronal receptor)
T2 sequence (P35363 whole entry): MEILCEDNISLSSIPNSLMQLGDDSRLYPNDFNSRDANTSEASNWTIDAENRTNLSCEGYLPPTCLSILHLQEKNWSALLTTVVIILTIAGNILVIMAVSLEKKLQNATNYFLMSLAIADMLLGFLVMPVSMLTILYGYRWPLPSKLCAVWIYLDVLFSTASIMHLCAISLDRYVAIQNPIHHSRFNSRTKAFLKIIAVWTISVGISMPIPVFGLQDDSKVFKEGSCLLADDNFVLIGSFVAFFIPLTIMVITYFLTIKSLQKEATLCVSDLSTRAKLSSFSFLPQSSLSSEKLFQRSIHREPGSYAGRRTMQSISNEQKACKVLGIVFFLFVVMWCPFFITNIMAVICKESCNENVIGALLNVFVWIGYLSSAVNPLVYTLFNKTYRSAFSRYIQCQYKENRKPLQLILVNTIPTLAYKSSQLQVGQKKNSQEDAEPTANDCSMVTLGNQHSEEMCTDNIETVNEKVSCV

[9] = molecular target: T3, NMDAR (Homo sapiens, UniProt Q05586+Q13224); assay: cell-based
T3 sequence (Q13224 27-1484, other chains not shown): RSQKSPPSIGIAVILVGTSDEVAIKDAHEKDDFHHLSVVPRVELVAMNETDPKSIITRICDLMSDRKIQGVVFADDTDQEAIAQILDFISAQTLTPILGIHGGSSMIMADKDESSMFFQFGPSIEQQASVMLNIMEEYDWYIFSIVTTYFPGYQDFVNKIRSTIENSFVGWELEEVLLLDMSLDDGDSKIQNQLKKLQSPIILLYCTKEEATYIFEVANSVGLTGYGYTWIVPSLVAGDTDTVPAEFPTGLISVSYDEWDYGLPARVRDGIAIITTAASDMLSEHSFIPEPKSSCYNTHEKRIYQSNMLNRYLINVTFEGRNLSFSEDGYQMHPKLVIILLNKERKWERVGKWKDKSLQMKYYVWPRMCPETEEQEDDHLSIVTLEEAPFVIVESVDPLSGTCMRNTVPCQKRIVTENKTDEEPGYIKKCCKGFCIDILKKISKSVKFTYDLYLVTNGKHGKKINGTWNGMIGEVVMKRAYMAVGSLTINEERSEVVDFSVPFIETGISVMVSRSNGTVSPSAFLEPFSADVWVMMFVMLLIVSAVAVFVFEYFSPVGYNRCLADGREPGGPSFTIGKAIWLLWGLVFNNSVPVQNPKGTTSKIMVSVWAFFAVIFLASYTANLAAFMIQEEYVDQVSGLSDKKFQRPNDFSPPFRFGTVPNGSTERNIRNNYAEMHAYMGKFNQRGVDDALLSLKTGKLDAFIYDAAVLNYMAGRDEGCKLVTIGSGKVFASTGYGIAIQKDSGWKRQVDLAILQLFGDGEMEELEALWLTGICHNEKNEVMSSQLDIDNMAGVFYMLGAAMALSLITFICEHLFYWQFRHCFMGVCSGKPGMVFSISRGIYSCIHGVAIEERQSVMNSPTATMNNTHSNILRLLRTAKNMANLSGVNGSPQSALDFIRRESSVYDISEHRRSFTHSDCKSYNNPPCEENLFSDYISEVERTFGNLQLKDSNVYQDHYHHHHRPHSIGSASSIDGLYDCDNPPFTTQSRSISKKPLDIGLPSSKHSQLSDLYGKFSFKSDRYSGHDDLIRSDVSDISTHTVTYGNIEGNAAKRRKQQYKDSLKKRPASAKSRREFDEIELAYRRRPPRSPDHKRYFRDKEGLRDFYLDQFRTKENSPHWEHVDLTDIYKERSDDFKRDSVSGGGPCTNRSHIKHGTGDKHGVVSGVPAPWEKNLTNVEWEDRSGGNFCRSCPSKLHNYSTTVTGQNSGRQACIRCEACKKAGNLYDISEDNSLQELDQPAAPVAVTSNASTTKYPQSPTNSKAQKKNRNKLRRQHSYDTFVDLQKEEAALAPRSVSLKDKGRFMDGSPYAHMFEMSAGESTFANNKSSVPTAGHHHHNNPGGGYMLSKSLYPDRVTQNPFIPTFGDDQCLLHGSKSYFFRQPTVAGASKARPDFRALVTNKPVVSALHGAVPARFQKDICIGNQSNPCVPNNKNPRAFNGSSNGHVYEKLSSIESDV

[10] = molecular target: T4, DRD1 (Homo sapiens, UniProt P21728); assay: cell-based
T4 sequence (P21728 whole entry): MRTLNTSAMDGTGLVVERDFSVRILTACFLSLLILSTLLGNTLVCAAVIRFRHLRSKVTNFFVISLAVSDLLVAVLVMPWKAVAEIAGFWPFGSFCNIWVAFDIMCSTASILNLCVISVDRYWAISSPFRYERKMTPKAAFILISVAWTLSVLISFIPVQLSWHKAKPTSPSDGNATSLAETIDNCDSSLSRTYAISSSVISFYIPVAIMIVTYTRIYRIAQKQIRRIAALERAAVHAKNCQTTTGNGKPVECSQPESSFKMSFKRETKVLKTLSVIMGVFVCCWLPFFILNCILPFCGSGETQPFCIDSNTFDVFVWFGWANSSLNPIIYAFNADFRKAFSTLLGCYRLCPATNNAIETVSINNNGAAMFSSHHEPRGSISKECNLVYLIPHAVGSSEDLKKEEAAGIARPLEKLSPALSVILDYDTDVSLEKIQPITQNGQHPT

[11] = molecular target: HTR1B (5-HTR1B) (Homo sapiens, UniProt P28222); assay: cell-based
[12] = molecular target: T5, ADRA1A (Homo sapiens, UniProt P35348); assay: cell-based
T5 sequence (P35348 1-466): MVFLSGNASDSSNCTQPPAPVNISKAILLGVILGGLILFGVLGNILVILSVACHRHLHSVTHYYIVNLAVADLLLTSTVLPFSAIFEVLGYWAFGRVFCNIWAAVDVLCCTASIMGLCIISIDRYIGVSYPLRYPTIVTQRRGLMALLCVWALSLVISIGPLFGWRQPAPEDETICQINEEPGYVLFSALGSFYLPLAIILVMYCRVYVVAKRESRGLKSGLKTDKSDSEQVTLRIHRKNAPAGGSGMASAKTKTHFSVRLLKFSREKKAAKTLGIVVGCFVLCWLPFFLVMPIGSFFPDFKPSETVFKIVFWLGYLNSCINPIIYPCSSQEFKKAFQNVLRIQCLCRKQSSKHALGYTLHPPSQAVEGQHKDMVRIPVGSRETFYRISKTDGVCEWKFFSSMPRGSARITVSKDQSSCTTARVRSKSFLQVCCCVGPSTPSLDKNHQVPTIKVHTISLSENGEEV

[13] = molecular target: T4, DRD1; assay: cell-based; remark: listed apart in the source
[14] = molecular target: HTR2B (5-HT2B) (Homo sapiens, UniProt P41595); assay: cell-based
Sequence of HTR2B (5-HT2B) (P41595 whole entry): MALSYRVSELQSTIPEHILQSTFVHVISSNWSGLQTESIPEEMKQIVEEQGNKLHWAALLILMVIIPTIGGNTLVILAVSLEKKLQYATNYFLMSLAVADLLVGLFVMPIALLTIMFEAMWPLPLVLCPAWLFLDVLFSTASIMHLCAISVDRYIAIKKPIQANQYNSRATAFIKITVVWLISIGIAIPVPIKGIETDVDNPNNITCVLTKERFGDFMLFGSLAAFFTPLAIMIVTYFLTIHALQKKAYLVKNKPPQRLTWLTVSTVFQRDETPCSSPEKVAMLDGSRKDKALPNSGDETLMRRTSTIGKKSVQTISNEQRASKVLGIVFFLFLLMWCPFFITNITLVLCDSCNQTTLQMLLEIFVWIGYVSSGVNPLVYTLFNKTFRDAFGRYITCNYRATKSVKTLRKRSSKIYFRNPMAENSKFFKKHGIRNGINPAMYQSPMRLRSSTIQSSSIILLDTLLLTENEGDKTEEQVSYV

[15] = molecular target: T3, NMDAR; assay: cell-based; remark: listed apart in the source
[16] = molecular target: T6, CHRM2 (Homo sapiens, UniProt P08172); assay: cell-based
T6 sequence (P08172 1-466): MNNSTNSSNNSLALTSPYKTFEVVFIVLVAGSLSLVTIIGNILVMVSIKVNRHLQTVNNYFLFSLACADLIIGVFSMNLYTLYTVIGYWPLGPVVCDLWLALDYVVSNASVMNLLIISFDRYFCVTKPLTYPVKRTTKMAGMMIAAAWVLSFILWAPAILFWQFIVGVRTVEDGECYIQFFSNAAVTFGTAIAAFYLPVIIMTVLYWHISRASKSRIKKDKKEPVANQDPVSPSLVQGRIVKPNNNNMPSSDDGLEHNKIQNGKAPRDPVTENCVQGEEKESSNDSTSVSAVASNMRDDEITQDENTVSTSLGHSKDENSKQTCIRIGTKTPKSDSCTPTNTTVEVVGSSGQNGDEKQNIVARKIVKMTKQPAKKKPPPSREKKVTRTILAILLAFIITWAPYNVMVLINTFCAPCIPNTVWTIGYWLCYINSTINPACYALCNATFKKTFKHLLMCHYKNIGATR

[17] = molecular target: T7, HTR3A (5-HT3A) (Homo sapiens, UniProt P46098); assay: cell-based
T7 sequence (P46098 24-478): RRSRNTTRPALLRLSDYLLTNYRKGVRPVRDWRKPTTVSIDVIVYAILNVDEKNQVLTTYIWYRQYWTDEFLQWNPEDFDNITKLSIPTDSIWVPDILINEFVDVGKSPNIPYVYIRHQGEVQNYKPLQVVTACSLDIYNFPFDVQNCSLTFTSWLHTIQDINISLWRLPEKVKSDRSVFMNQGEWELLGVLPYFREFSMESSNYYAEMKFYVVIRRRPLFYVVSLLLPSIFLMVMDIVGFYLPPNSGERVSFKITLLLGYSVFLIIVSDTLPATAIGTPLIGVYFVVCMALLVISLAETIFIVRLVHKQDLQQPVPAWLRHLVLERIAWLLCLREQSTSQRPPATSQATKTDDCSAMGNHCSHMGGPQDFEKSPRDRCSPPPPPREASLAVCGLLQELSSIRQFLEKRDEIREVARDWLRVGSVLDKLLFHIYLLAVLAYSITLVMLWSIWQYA

[18] = HTR2A, GPCR, AGN (agonist), read-out: EC50
[19] = ADRA2A, GPCR, AGN (agonist), read-out: EC50
[20] = DRD2S, GPCR, AGN (agonist), read-out: EC50
[21] = DAT, transporter, BL (blocker), read-out: IC50
[22] = AVPR1A, GPCR, AGN (agonist), read-out: EC50
[23] = CNR1, GPCR, AGN (agonist), read-out: EC50
[24] = NMDAR, ion channel, OP (opener), read-out: EC50
[25] = DRD1, GPCR, ANT (antagonist), read-out: IC50
[26] = HTR1B, GPCR, ANT (antagonist), read-out: IC50
[27] = ADRA1A, GPCR, AGN (agonist), read-out: EC50
[28] = DRD1, GPCR, AGN (agonist), read-out: EC50
[29] = HTR2B, GPCR, ANT (antagonist), read-out: IC50
[30] = NMDAR, ion channel, BL (blocker), read-out: IC50
[31] = CHRM2, GPCR, ANT (antagonist), read-out: IC50
[32] = HTR3A, ion channel, BL (blocker), read-out: IC50
[33] = OPRD1, GPCR, AGN (agonist), read-out: EC50

Sequence of HTR2A (P28223 whole entry): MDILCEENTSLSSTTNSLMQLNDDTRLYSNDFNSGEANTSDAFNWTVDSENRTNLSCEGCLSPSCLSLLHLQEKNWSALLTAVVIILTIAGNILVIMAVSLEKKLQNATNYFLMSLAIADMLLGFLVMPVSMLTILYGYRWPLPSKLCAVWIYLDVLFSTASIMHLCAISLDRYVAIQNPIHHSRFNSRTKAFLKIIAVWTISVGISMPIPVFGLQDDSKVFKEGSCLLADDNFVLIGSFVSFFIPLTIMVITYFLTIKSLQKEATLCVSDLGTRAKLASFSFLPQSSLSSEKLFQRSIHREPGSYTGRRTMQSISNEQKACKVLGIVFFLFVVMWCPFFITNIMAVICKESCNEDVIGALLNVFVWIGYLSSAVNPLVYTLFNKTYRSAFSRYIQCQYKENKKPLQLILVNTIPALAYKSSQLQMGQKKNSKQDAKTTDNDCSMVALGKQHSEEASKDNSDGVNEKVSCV

CC(C)OC(=O)OCOc1cccc2c1c(CCN(C)C)cn2COC(=O)OC(C)C [D(XIII)]
EC50 [1, 18]: > 100 µM | EC50 [2, 19]: > 100 µM | EC50 [3, 20]: 77 µM | IC50 [4, 21]: > 100 µM | EC50 [5, 22]: > 100 µM | EC50 [6, 23]: > 100 µM | EC50 [7]: > 100 µM | incidences of Head Twitch Response (HTR) relative to vehicle [8]: Elevated incidences of HTR | EC50 [9, 24]: > 100 µM | IC50 [10, 25]: > 100 µM | IC50 [11, 26]: > 100 µM | EC50 [12, 27]: > 100 µM | EC50 [13, 28]: > 100 µM | IC50 [14, 29]: 5.14 µM | IC50 [15, 30]: > 100 µM | IC50 [16, 31]: 66.5 µM | IC50 [17, 32]: 16.7 µM

CN(C)CCc1c[nH]c2cccc(OC(=O)OCc3ccccc3)c12 [B(II)]
EC50 [1, 18]: > 100 µM | EC50 [2]: > 100 µM | EC50 [3]: > 100 µM | IC50 [4]: 4.69 µM | EC50 [5]: > 100 µM | EC50 [6]: > 100 µM | EC50 [7]: > 100 µM | EC50 [9]: > 100 µM | IC50 [10]: 5.39 µM | IC50 [11]: > 100 µM | EC50 [12]: > 100 µM | EC50 [13]: > 100 µM | IC50 [14]: 0.281 µM | IC50 [15]: 16 µM | IC50 [16]: > 100 µM | IC50 [17]: 2.34 µM

CCCCC(=O)OCOc1cccc2[nH]cc(CCN(C)C)c12 [D(III)]
EC50 [1, 18]: > 100 µM | EC50 [2, 19]: > 100 µM | EC50 [3, 20]: 17.8 µM | IC50 [4, 21]: > 100 µM | EC50 [5, 22]: > 100 µM | EC50 [6, 23]: > 100 µM | EC50 [7, 33]: > 100 µM | incidences of Head Twitch Response (HTR) relative to vehicle [8]: Elevated incidences of HTR | EC50 [9, 24]: > 100 µM | IC50 [10, 25]: 32.2 µM | IC50 [11, 26]: > 100 µM | EC50 [12, 27]: > 100 µM | EC50 [13, 28]: > 100 µM | IC50 [14, 29]: 0.301 µM | IC50 [15, 30]: > 100 µM | IC50 [16, 31]: > 100 µM | IC50 [17, 32]: 32.4 µM

CCCC(=O)OCOc1cccc2[nH]cc(CCN(C)C)c12 [D(IV)]
EC50 [1, 18]: > 100 µM | EC50 [2, 19]: > 100 µM | EC50 [3, 20]: 27.4 µM | IC50 [4, 21]: > 100 µM | EC50 [5, 22]: > 100 µM | EC50 [6, 23]: > 100 µM | EC50 [7, 33]: 53.2 µM | EC50 [9, 24]: > 100 µM | IC50 [10, 25]: 49.5 µM | IC50 [11, 26]: > 100 µM | EC50 [12, 27]: > 100 µM | EC50 [13, 28]: > 100 µM | IC50 [14, 29]: 0.512 µM | IC50 [15, 30]: > 100 µM | IC50 [16, 31]: > 100 µM | IC50 [17, 32]: > 100 µM

CC(C)[Si](Oc1cccc2[nH]cc(CN(C)C)c12)(C(C)C)C(C)C [A(V)]
EC50 [1, 18]: > 100 µM | EC50 [2, 19]: > 100 µM | EC50 [3, 20]: > 100 µM | IC50 [4, 21]: > 100 µM | EC50 [5, 22]: > 100 µM | EC50 [6, 23]: > 100 µM | EC50 [7, 33]: 33.3 µM | incidences of Head Twitch Response (HTR) relative to vehicle [8]: Elevated incidences of HTR | EC50 [9, 24]: 87.5 µM | IC50 [10, 25]: 9.67 µM | IC50 [11, 26]: > 100 µM | EC50 [12, 27]: > 100 µM | EC50 [13, 28]: > 100 µM | IC50 [14, 29]: 3.14 µM | IC50 [15, 30]: 10.1 µM | IC50 [16, 31]: > 100 µM | IC50 [17, 32]: 1.43 µM

CN(C)CCc1c[nH]c2cccc(OC(=O)OCC3CC3)c12 [B(III)]
EC50 [1, 18]: > 100 µM | EC50 [2, 19]: > 100 µM | EC50 [3, 20]: 3.81 µM | IC50 [4, 21]: > 100 µM | EC50 [5, 22]: > 100 µM | EC50 [6, 23]: > 100 µM | EC50 [7, 33]: > 100 µM | incidences of Head Twitch Response (HTR) relative to vehicle [8]: Elevated incidences of HTR | EC50 [9, 24]: > 100 µM | IC50 [10, 25]: 13.3 µM | IC50 [11, 26]: > 100 µM | EC50 [12, 27]: > 100 µM | EC50 [13, 28]: > 100 µM | IC50 [14, 29]: 0.0215 µM | IC50 [15, 30]: > 100 µM | IC50 [16, 31]: > 100 µM | IC50 [17, 32]: 47.4 µM

CN(C)CCc1c[nH]c2cccc(OP(=O)(Oc3ccccc3)Oc3ccccc3)c12 [F(I)]
EC50 [1]: > 100 µM | EC50 [2]: > 100 µM | EC50 [3]: 3.06 µM | IC50 [4]: > 100 µM | EC50 [5]: > 100 µM | EC50 [6]: > 100 µM | EC50 [7]: > 100 µM | incidences of Head Twitch Response (HTR) relative to vehicle [8]: Elevated incidences of HTR | EC50 [9]: > 100 µM | IC50 [10]: 6.98 µM | IC50 [11]: > 100 µM | EC50 [12]: > 100 µM | EC50 [13]: > 100 µM | IC50 [14]: 0.127 µM | IC50 [15]: > 100 µM | IC50 [16]: 42.9 µM | IC50 [17]: 2.52 µM

CN(C)Cc1c[nH]c2cccc(O[Si](C)(C)C(C)(C)C)c12 [A(IV)]
EC50 [1, 18]: 34 µM | EC50 [2, 19]: > 100 µM | EC50 [3, 20]: 12.7 µM | IC50 [4, 21]: 25.4 µM | EC50 [5, 22]: > 100 µM | EC50 [6, 23]: > 100 µM | EC50 [7, 33]: 29.1 µM | incidences of Head Twitch Response (HTR) relative to vehicle [8]: Elevated incidences of HTR | EC50 [9, 24]: > 100 µM | IC50 [10, 25]: 10.9 µM | IC50 [11, 26]: > 100 µM | EC50 [12, 27]: > 100 µM | EC50 [13, 28]: > 100 µM | IC50 [14, 29]: 0.814 µM | IC50 [15, 30]: 12.1 µM | IC50 [16, 31]: > 100 µM | IC50 [17, 32]: 0.83 µM
